From patent publication US20240109868A1, “EP300/CBP MODULATOR, PREPARATION METHOD THEREFOR AND USE THEREOF” (Miracure Biotechnology Limited, priority 2022, published 2024)

Experiments:
22Rv1 Cell = assay: 22RV1 cell growth inhibition, CellTiter-Glo, 72 h; assay type: cell-based; conditions: Homo sapiens, 22Rv1, 72 h, 22RV1 cells, 72 h culture
Summary of the method: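 Cells seeded at 5×10^3/well overnight in RPMI-1640/10% FBS, then exposed to compound (0.5% DMSO final) for 72 h at 37 °C.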

vCap Cell = assay: vCap cell growth inhibition, CellTiter-Glo, 72 h; assay type: cell-based; conditions: Homo sapiens, VCaP, 72 h, vCap cells, 72 h culture
Method: 22RV1 or vCap cells were cultured in RPMI-1640 medium (10% fetal bovine serum and 100 units (per mL) of penicillin/streptomycin dual antibody were added to RPMI-1640) in a 37° C., 5% CO2 cell incubator. Cells at the logarithmic growth phase were inoculated onto a 96-well cell culture plate at 5×10^3 cells/100 μL/well and cultured overnight. Solutions of different concentrations of an active compound in DMSO were added, with the final concentration being 0.5% DMSO. The positive control was 1% TweeN2O, and the negative control was 0.5% DMSO. After 72 h of culture, an equal volume of CellTiter-Glo was added to each well, and the mixtures were mixed homogeneously by shaking for 2 min. The plate was let stand at room temperature for 10 min, and fluorescence signal values were read using a microplate reader. Data were analyzed using Prism 7.0 and graphs were generated. The values are shown as mean f SEM (N=2). […] The X-axis represents compound concentration (μM), and the Y-axis represents % inhibition.

| SMILES | IC50 (22Rv1 Cell) [nM] | IC50 (vCap Cell) [nM] |
| --- | --- | --- |
| CNC(=O)N1CCc2cc(C3=CC4CCC(C3)N4)cc(N3CCCc4cc(-c5cnn(C)c5)c(C(F)F)cc43)c2C1 (stereo not shown) [Compound M001088] | > 1000 | > 1000 |
| CNC(=O)N1CCc2cc(C3CC4CCC(C3)N4)cc(N3CCCc4cc(-c5cnn(C)c5)c(C(F)F)cc43)c2C1 (stereo not shown) [Compound M001089] | > 1000 | > 1000 |
| CNC(=O)N1Cc2cc(C3CC4CCC(C3)N4C)cc(N3CCCc4cc(-c5cnn(C)c5)c(C(F)F)cc43)c2C1 (stereo not shown) [Compound M001092] | > 1000 | > 1000 |
| CNC(=O)N1Cc2cc(C3CC4CCC(C3)N4C(C)=O)cc(N3CCCc4cc(-c5cnn(C)c5)c(C(F)F)cc43)c2C1 (stereo not shown) [Compound M001095] | > 1000 | > 1000 |
| CNC(=O)N1Cc2cc(C3=CC4CCC(C3)N4C(=O)OC(C)(C)C)cc(N3CCCc4cc(-c5cnn(C)c5)c(C(F)F)cc43)c2C1 (stereo not shown) [Compound M001097] | > 1000 | > 1000 |
| CNC(=O)N1Cc2cc(C3=CC4CCC(C3)N4)cc(N3CCCc4cc(-c5cnn(C)c5)c(C(F)F)cc43)c2C1 (stereo not shown) [Compound M001098] | > 1000 | > 1000 |
| CNC(=O)N1Cc2cc(C3CC4CCC(C3)N4)cc(N3CCCc4cc(-c5cnn(C)c5)c(C(F)F)cc43)c2C1 (stereo not shown) [Compound M001099] | > 1000 | > 1000 |
| CNC(=O)N1Cc2cc(C3CC4CCC(C3)N4C(=O)NC)cc(N3CCCc4cc(-c5cnn(C)c5)c(C(F)F)cc43)c2C1 (stereo not shown) [Compound M001116] | > 1000 | > 1000 |
| CC(=O)N1Cc2cc(-c3ccn(C)c(=O)c3)cc(N3CCCc4cc(-c5cnn(C)c5)c(C(F)F)cc43)c2C1 [Compound M001128] | > 1000 | > 1000 |
| CNC(=O)N1C2CCC1CC(c1cc3c(c(N4CCCc5cc(-c6cnn(C)c6)c(C(F)F)cc54)c1)CN(C(C)=O)C3)C2 (stereo not shown) [Compound M001129] | < 1000 | < 1000 |
| COC(=O)N1C2CCC1CC(c1cc3c(c(N4CCCc5cc(-c6cnn(C)c6)c(C(F)F)cc54)c1)CN(C(C)=O)C3)C2 (stereo not shown) [Compound M001132] | > 1000 | < 1000 |
| CNC(=O)N1Cc2cc(C3CC4CCC(C3)N4C(=O)OC)cc(N3CCCc4cc(-c5cnn(C)c5)c(C(F)F)cc43)c2C1 (stereo not shown) [Compound M001137] | > 1000 | > 1000 |
| CC(=O)N1CCc2cc(C3CCNC(=O)C3)cc(N3CCCc4cc(-c5cnn(C)c5)c(C(F)F)cc43)c2C1 (stereo not shown) [Compound M001142] | > 1000 | > 1000 |
| CC(=O)N1CCc2cc(C3CCN(C)C(=O)C3)cc(N3CCCc4cc(-c5cnn(C)c5)c(C(F)F)cc43)c2C1 (stereo not shown) [Compound M001143] | > 1000 | > 1000 |
| CC(=O)N1CCc2cc(-c3ccn(C)c(=O)c3)cc(N3CCCc4cc(-c5cnn(C)c5)c(C(F)F)cc43)c2C1 [Compound M001144] | > 1000 | > 1000 |
| CC(=O)N1CCc2cc(-c3cc[nH]c(=O)c3)cc(N3CCCc4cc(-c5cnn(C)c5)c(C(F)F)cc43)c2C1 [Compound M001153] | > 1000 | > 1000 |
| CNC(=O)N1Cc2cc(-c3cc[nH]c(=O)c3)cc(N3CCCc4cc(-c5cnn(C)c5)c(C(F)F)cc43)c2C1 [Compound M001155] | > 1000 | > 1000 |
| CC(=O)N1Cc2cc(-c3cc[nH]c(=O)c3)cc(N3CCCc4cc(-c5cnn(C)c5)c(C(F)F)cc43)c2C1 [Compound M001156] | > 1000 | > 1000 |
| CNC(=O)N1Cc2cc(C3CCN(C(C)=O)CC3)cc(N3CCCc4cc(-c5cnn(C)c5)c(C(F)F)cc43)c2C1 [Compound M001161] | > 1000 | < 1000 |
| CNC(=O)N1Cc2cc(C3CCN(C(=O)C4CC4)CC3)cc(N3CCCc4cc(-c5cnn(C)c5)c(C(F)F)cc43)c2C1 [Compound M001162] | > 1000 | > 1000 |
| CNC(=O)N1Cc2cc(C3CCN(C(=O)c4ccccc4)CC3)cc(N3CCCc4cc(-c5cnn(C)c5)c(C(F)F)cc43)c2C1 [Compound M001163] | > 1000 | > 1000 |
| CN1CCC(c2cc3c(c(N4CCCc5cc(-c6cnn(C)c6)c(C(F)F)cc54)c2)CN(C(=O)C2CC2)C3)CC1=O (stereo not shown) [Compound M001164] | > 1000 | > 1000 |
| CC(=O)N1CCc2cc([C@H]3CC[C@@H](O)CC3)cc(N3CCCc4cc(-c5cnn(C)c5)c(C(F)F)cc43)c2C1 [Compound M001178] | > 1000 | > 1000 |
| CC(=O)N1CCc2cc([C@H]3CC[C@H](O)CC3)cc(N3CCCc4cc(-c5cnn(C)c5)c(C(F)F)cc43)c2C1 [Compound M001179] | > 1000 | > 1000 |
| CNC(=O)N1CCc2cc(C3CCC(O)CC3)cc(N3CCCc4cc(-c5cnn(C)c5)c(C(F)F)cc43)c2C1 (stereo not shown) [Compound M001180] | > 1000 | < 1000 |
| CNC(=O)N1CCc2cc([C@H]3CC[C@H](O)CC3)cc(N3CCCc4cc(-c5cnn(C)c5)c(C(F)F)cc43)c2C1 [Compound M001181] | > 1000 | > 1000 |
| CNC(=O)N1CCc2cc(C3CCOCC3)cc(N3CCCc4cc(-c5cnn(C)c5)c(C(F)F)cc43)c2C1 [Compound M001184] | > 1000 | < 1000 |

Results, then the compound that gave them:

| IC50 (22Rv1 Cell) [nM] | IC50 (vCap Cell) [nM] | SMILES |
| --- | --- | --- |
| > 1000 | > 1000 | CNC(=O)N1CCc2cc(C3CCN(C(=O)C4CCN(C)C4)CC3)cc(N3CCCc4cc(-c5cnn(C)c5)c(C(F)F)cc43)c2C1 (stereo not shown) [Compound M001085] |
| > 1000 | > 1000 | CC(=O)N1Cc2cc(C3CCN(C(=O)C4CN(C)C4)CC3)cc(N3CCCc4cc(-c5cnn(C)c5)c(C(F)F)cc43)c2C1 [Compound M001086] |
| > 1000 | > 1000 | CC(=O)N1Cc2cc(C3CCN(C(=O)C4CCN(C)C4)CC3)cc(N3CCCc4cc(-c5cnn(C)c5)c(C(F)F)cc43)c2C1 (stereo not shown) [Compound M001087] |
| > 1000 | > 1000 | CNC(=O)N1CCc2cc(C3=CCC4(CC3)OCCO4)cc(N3CCCc4cc(-c5cnn(C)c5)c(C(F)F)cc43)c2C1 [Compound M001090] |
| > 1000 | > 1000 | CNC(=O)N1Cc2cc(C3CCC(F)(F)CC3)cc(N3CCCc4cc(-c5cnn(C)c5)c(C(F)F)cc43)c2C1 [Compound M001094] |
| > 1000 | > 1000 | CNC(=O)N1Cc2cc(C3=CCN(C(=O)OCc4ccccc4)CC3)cc(N3CCCc4cc(-c5cnn(C)c5)c(C(F)F)cc43)c2C1 [Compound M001096] |
| < 1000 | < 1000 | CC(=O)N1Cc2cc(C3CCC4(CC3)OCCO4)cc(N3CCCc4cc(-c5cnn(C)c5)c(C(F)F)cc43)c2C1 [Compound M001101] |
| > 1000 | < 1000 | CC(=O)N1Cc2cc(C3CCC(=O)CC3)cc(N3CCCc4cc(-c5cnn(C)c5)c(C(F)F)cc43)c2C1 [Compound M001102] |
| > 1000 | > 1000 | CNC(=O)N1CCc2cc(C3CCC(=O)CC3)cc(N3CCCc4cc(-c5cnn(C)c5)c(C(F)F)cc43)c2C1 [Compound M001103] |
| > 1000 | > 1000 | CNC(=O)N1Cc2cc(C3CCNC(=O)C3)cc(N3CCCc4cc(-c5cnn(C)c5)c(C(F)F)cc43)c2C1 (stereo not shown) [Compound M001118] |
| > 1000 | > 1000 | CNC(=O)N1Cc2cc(C3CCN(C)C(=O)C3)cc(N3CCCc4cc(-c5cnn(C)c5)c(C(F)F)cc43)c2C1 (stereo not shown) [Compound M001119] |
| > 1000 | > 1000 | CNC(=O)N1Cc2cc(-c3ccccc3)cc(N3CCCc4cc(-c5cnn(C)c5)c(C(F)F)cc43)c2C1 [Compound M001120] |
| > 1000 | > 1000 | CNC(=O)N1Cc2cc(-c3ccc(OC)cc3)cc(N3CCCc4cc(-c5cnn(C)c5)c(C(F)F)cc43)c2C1 [Compound M001121] |
| > 1000 | > 1000 | CNC(=O)N1Cc2cc(-c3ccn(C)c(=O)c3)cc(N3CCCc4cc(-c5cnn(C)c5)c(C(F)F)cc43)c2C1 [Compound M001122] |
| > 1000 | < 1000 | CNC(=O)N1CCc2cc(C3CCNC(=O)C3)cc(N3CCCc4cc(-c5cnn(C)c5)c(C(F)F)cc43)c2C1 (stereo not shown) [Compound M001123] |
| < 1000 | < 1000 | CNC(=O)N1CCc2cc(C3CCN(C)C(=O)C3)cc(N3CCCc4cc(-c5cnn(C)c5)c(C(F)F)cc43)c2C1 (stereo not shown) [Compound M001124, 8-(7-(difluoromethyl)-6-(1-methyl-1H-pyrazol-4-yl)-3,4-dihydroquinolin-1(2H)-yl)-N-methyl-6-(1-methyl-2-oxopiperidin-4-yl)-3,4H-dihydroisoquinoline-2(1H)-carboxamide] |
| > 1000 | < 1000 | CNC(=O)N1CCc2cc(-c3ccn(C)c(=O)c3)cc(N3CCCc4cc(-c5cnn(C)c5)c(C(F)F)cc43)c2C1 [Compound M001125] |
| < 1000 | < 1000 | CC(=O)N1Cc2cc(C3CCN(C)C(=O)C3)cc(N3CCCc4cc(-c5cnn(C)c5)c(C(F)F)cc43)c2C1 (stereo not shown) [Compound M001127] |
| < 1000 | < 1000 | CNC(=O)N1CCc2cc(C3CCC(=O)N(C)C3)cc(N3CCCc4cc(-c5cnn(C)c5)c(C(F)F)cc43)c2C1 (stereo not shown) [Compound M001170] |
| < 1000 | < 1000 | CC(=O)N1Cc2cc(C3CCN(C(=O)c4cn(C)cn4)CC3)cc(N3CCCc4cc(-c5cnn(C)c5)c(C(F)F)cc43)c2C1 [Compound M001176] |
